Measured values: US6495578B1, “Sulfonamide derivatives having oxadiazole rings” (Shionogi & Co., Ltd., priority 1999, dated 2002)
pIC50: −log10 of the molar value.

target: T1, MMP-2 (Homo sapiens, UniProt P08253); test: Assay for inhibitory activities on MMP-2 (fluorogenic coumarin-labelled peptide substrate); format: biochemical; conditions: MMP-2 purchased from Calbiochem-Novabiochem; substrate MOCAc-Pro-Leu-Gly-Leu-A2Pr(DNP)-Ala-Arg-NH2
T1 construct: purchased Calbiochem-Novabiochem International, Inc
T1 sequence (P08253 110-660): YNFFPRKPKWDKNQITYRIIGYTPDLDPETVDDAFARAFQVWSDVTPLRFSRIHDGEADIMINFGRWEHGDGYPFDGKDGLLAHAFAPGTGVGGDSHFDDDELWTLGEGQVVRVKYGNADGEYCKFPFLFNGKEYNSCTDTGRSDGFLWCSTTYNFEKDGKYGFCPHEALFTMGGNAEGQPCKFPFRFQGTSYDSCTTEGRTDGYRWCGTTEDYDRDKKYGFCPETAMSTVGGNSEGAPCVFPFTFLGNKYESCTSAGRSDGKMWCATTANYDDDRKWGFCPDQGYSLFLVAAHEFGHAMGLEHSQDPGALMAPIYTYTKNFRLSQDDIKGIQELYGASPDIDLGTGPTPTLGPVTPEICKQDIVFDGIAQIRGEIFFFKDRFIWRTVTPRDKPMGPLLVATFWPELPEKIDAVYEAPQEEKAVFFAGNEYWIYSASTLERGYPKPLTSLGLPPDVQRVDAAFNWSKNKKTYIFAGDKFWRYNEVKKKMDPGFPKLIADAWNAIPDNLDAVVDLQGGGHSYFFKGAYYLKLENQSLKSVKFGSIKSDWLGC
Procedure: MMP-2 was purchased from Calbiochem-Novabiochem International, Inc.
The enzymatic activity on MMP-2 was analyzed by the method described in “C. Graham Knight, Frances Willenbrock and Gillian Murphy: A novel coumarin-labelled peptide for sensitive continuous assays of the matrix metalloproteinases: FEBS LETT., 296, (1992), 263-266”. The substrate: MOCAc-Pro-Leu-Gly-Leu-A2Pr(DNP)-Ala-Arg-NH2 was purchased from Peptide Institute, Inc., Osaka, Japan.
The measurement of the inhibitory activities (IC50) was carried out by the following four methods;
A) Reaction with substrate, enzyme (MMPs) and inhibitor
B) Reaction with substrate and inhibitor, without enzyme
C) Reaction with substrate and enzyme (MMPs), without inhibitor
D) Reaction with substrate only
IC50 values were calculated by using the following formula and each fluorescence values of above four methods (A to D).
IC50 means the concentration required to inhibit 50% of the enzyme activity.

| pIC50 | SMILES |
| --- | --- |
| 8.34 | Cc1ccc(-c2nc(-c3ccc(S(=O)(=O)N[C@@H](C(=O)O)C(C)C)cc3)no2)cc1 [Compound A-1] |
| 7.81 | CC(C)[C@@H](NS(=O)(=O)c1ccc(-c2noc(-c3ccc(F)cc3)n2)cc1)C(=O)O [Compound A-17] |
| 7.44 | CCCc1ccc(-c2nc(-c3ccc(S(=O)(=O)N[C@H](Cc4ccccc4)C(=O)O)s3)no2)cc1 [Compound B-5] |
| 6.90 | CCCc1ccc(-c2nc(-c3ccc(S(=O)(=O)N[C@H](C(=O)O)C(C)C)cc3)no2)cc1 [Compound A-21] |
| 7.73 | C[C@@H](NS(=O)(=O)c1ccc(-c2noc(-c3ccc(Cl)cc3)n2)cc1)C(=O)O [Compound A-11] |
| 7.54 | O=C(O)[C@@H](Cc1c[nH]c2ccccc12)NS(=O)(=O)c1ccc(-c2noc(-c3ccc(F)cc3)n2)s1 [Compound B-12] |
| 7.17 | CC(C)[C@@H](NS(=O)(=O)c1ccc(-c2noc(-c3ccc(F)cc3)n2)s1)C(=O)O [Compound B-1] |
| 7.86 | O=C(O)[C@@H](Cc1ccccc1)NS(=O)(=O)c1ccc(-c2noc(-c3ccc(Cl)cc3)n2)cc1 [Compound A-6] |
| 7.51 | O=C(O)[C@@H](Cc1ccccc1)NS(=O)(=O)c1ccc(-c2noc(-c3cccs3)n2)cc1 [Compound A-40] |
| 8.17 | CC(C)[C@@H](NS(=O)(=O)c1ccc(-c2noc(-c3ccc(Cl)s3)n2)cc1)C(=O)O [Compound A-26] |
| 8.49 | CC(=O)c1ccc(-c2nc(-c3ccc(S(=O)(=O)N[C@H](C)C(=O)O)cc3)no2)cc1 [Compound A-51] |
| 8.30 | CCc1ccc(-c2nc(-c3ccc(S(=O)(=O)N[C@H](Cc4ccccc4)C(=O)O)cc3)no2)cc1 [Compound A-31] |

test system: not given; test: not given; conditions: not given

| melting point [°C] | SMILES |
| --- | --- |
| 208 to 209 | Cc1ccc(-c2nc(-c3ccc(S(=O)(=O)N[C@@H](C(=O)O)C(C)C)cc3)no2)cc1 [Compound A-1] |
